From ChEMBL document CHEMBL1155287, “Discovery of a small molecule inhibitor through interference with the gp120-CD4 interaction” (Bioorg Med Chem Lett, 2009) come the findings set out here.

In general, IC50 refers to the concentration needed to halve the response being measured. As usually defined, the microsomal CLint is the rate of metabolic loss divided by the concentration. As usually defined, the CC50 is the concentration at which the toxic effect on the cells reaches its halfway point. The low end stands for harm at low concentration, the high end for better tolerance by the cells. As a reminder, the logD is the decadic logarithm of the distribution of all forms, ionised or not, between an organic phase and buffer at a given pH. Higher therefore signals higher lipophilicity. The half-life is the time in which the quantity being followed falls by half. As a reminder, the bioavailability is the share of a dose that reaches the circulation, judged against a reference dose that is usually intravenous. Low readings indicate little systemic uptake, high ones much systemic uptake.

Data set [1] in a line: Inhibition of HIV1 JRFL gp120-mediated CHO cells fusion to HeLaP4 cells by HIV LTR-beta galactosidase reporter assay. The class given is cell-based. The conditions noted are these: Human immunodeficiency virus 1, JRFL.
The nature of data set [2]: in vitro. The conditions noted are these: human, liver microsomes.
Data set [3] is described as follows: Cytotoxicity against human HeLaP4 cells. It counts as cell-based.
The nature of data set [4]: Lipophilicity, log D at pH 7.4. It counts as physicochemical. As to conditions: buffer.
The nature of data set [5]: Half life in rat at 1 mg/kg, iv and 1 mg/kg, po. The class given is ADME, organism-based. As to conditions: in vivo.
A short description of data set [6]: Bioavailability in rat at 1 mg/kg. It counts as ADME, organism-based. As to conditions: in vivo.
Data set [7] is described as follows: Plasma protein binding in rat at 1 mg/kg, iv and 1 mg/kg, po. The class given is ADME, organism-based. The conditions noted are these: read-out: PPB (converted).
Data set [8] relates to Human immunodeficiency virus 1. In words: Antiviral activity against Human immunodeficiency virus 1 NL4-3 assessed as inhibition of viral entry in HeLaP4 cells after 5 days by beta galactosidase reporter assay. The class given is functional, organism-based. As to conditions: Human immunodeficiency virus 1, NL4-3, HeLaP4, 120 h. For orientation: A reporter such as luciferase makes a cellular process visible.

A short description of data set [9]: Clearance in rat at 1 mg/kg, iv and 1 mg/kg, po. The class given is ADME, organism-based. The conditions noted are these: in vivo.
Data set [10] is described as follows: in vitro. The conditions noted are these: rat, liver microsomes. (Liver microsomes are vesicles of endoplasmic reticulum, rich in cytochrome P450 enzymes.)
The nature of data set [11]: Volume of distribution in rat at 1 mg/kg, iv and 1 mg/kg, po. The class given is ADME, organism-based. The conditions noted are these: in vivo.
Data set [12] deals with Human immunodeficiency virus 1. Put plainly: Antiviral activity against Human immunodeficiency virus 1 BaL infected human PBMC cells by Phenosense assay. The class given is functional, organism-based.
The subject of data set [13] is Human immunodeficiency virus 1. In words: Antiviral activity against Human immunodeficiency virus 1 BR92023 infected human PBMC cells by Phenosense assay. It counts as functional, organism-based. As to conditions: Human immunodeficiency virus 1, BR92023, PBMC.
For data set [14], the system named is Human immunodeficiency virus 1. In words: Antiviral activity against Human immunodeficiency virus 1 BR92004 infected human PBMC cells by Phenosense assay. It counts as functional, organism-based. As to conditions: Human immunodeficiency virus 1, BR92004, PBMC.
The subject of data set [15] is Human immunodeficiency virus 1. In words: Antiviral activity against Human immunodeficiency virus 1 3B infected human PBMC cells by Phenosense assay. The class given is functional, organism-based.

`CNC(=O)c1ccc(OC(C)C(=O)N2CCN(C(=O)c3ccccc3)C[C@H]2C)c(C)c1` (mixture of isomers) returned an IC50 in [1] of 2900 nM. The compound also displayed a microsomal CLint in [2] of less than 8 µL/min/mg. In [3], this compound had a CC50 of more than 10000 nM. Besides, the pH-dependent lipophilicity (logD) in [4] is 1.8.

`CNC(=O)c1cccc(OC(C)C(=O)N2CCN(C(=O)c3ccccc3)C[C@H]2C)c1C` (mixture of isomers) displayed an IC50 in data set [1] of 12000 nM. Besides, the microsomal CLint in [2] was less than 8 µL/min/mg. In data set [3], the CC50 is more than 10000 nM. In addition, in data set [4], the logD was found to be 1.2.

In turn, `CC(Oc1ccc(C(=O)N(C)C)cc1)C(=O)N1CCN(C(=O)c2ccccc2)C[C@H]1C` (mixture of isomers) had a 50% inhibitory concentration (IC50) in data set [1] of more than 25000 nM. The microsomal CLint in [2] was less than 8 µL/min/mg. This compound also gave a CC50 in data set [3] of more than 10000 nM. For the same compound, the logD in data set [4] worked out at 0.9.

In data set [1], `CC(Oc1cccc(-c2ccn[nH]2)c1)C(=O)N1CCN(C(=O)c2ccccc2)C[C@H]1C` (mixture of isomers) came in with an IC50 of 35 nM. Further, in [2], the microsomal CLint is 61 µL/min/mg. The compound further displayed a CC50 in [3] of more than 10000 nM. In addition, the pH-dependent lipophilicity (logD) in data set [4] was determined as 2.3.

On to `Cc1ccc(OC(C)C(=O)N2CCN(C(=O)c3ccccc3)C[C@H]2C)cc1C` (mixture of isomers), for which, in data set [1], the midpoint of inhibition, the IC50, lay at 100 nM. In addition, the microsomal CLint in data set [2] is 158 µL/min/mg. For the same compound, the CC50 in [3] is more than 10000 nM.

Consider `CNC(=O)c1ccc(O[C@@H](C)C(=O)N2CCN(C(=O)c3ccccc3)C[C@H]2C)c(OC)c1`, for which the half-life in [5] is 0.7 h; in [10], more than 2 h. This compound also yielded a bioavailability in data set [6] of 48%. The IC50 in data set [1] amounted to 17 nM; in [8], 3 nM. The fraction unbound in data set [7] is 0.81. The microsomal CLint in [2] was less than 8 µL/min/mg. In addition, the clearance in data set [9] stood at 75 mL/min/kg. In data set [3], this compound came in with a CC50 of more than 10000 nM. The logD in data set [4] turned out to be 1. In data set [11], this compound registered a Vd of 4.3 L/kg.

Compound `CNC(=O)c1ccc(OC(C)C(=O)N2CCN(C(=O)c3ccccc3)C[C@H]2C)cc1` (mixture of isomers) displayed an IC50 in data set [1] of 2600 nM. This compound showed a microsomal CLint in [2] of less than 8 µL/min/mg. The CC50 in [3] is more than 10000 nM. The compound also displayed a log distribution coefficient (logD) in data set [4] of 1.1.

As to `CCOc1cc(C(=O)NC)ccc1OC(C)C(=O)N1CCN(C(=O)c2ccccc2)C[C@H]1C` (mixture of isomers), the IC50 in data set [1] is more than 2000 nM. This compound gave a CC50 in [3] of more than 10000 nM.

In turn, `CNC(=O)c1ccc(OC(C)C(=O)N2CCN(C(=O)c3ccccc3)C[C@H]2C)c(F)c1` (mixture of isomers) returned a half-inhibitory concentration (IC50) in data set [1] of 2000 nM. In data set [2], this compound displayed a microsomal CLint of less than 8 µL/min/mg. The compound further registered a CC50 in [3] of more than 10000 nM. In data set [4], this compound showed a logD of 1.4.

Take `CNC(=O)c1ccc(OC(C)C(=O)N2CCN(C(=O)c3ccccc3)C[C@H]2C)cc1OC` (mixture of isomers): in data set [1], the IC50 was found to be 2700 nM. The same compound displayed a cytotoxic concentration (CC50) in data set [3] of more than 10000 nM.

`CNC(=O)c1cccc(OC(C)C(=O)N2CCN(C(=O)c3ccccc3)C[C@H]2C)c1OC` (mixture of isomers): in data set [1], the IC50 is more than 10000 nM. Further, the microsomal CLint in data set [2] was less than 8 µL/min/mg. Further, in data set [3], the CC50 was more than 10000 nM. The logD in [4] amounted to 1.

Turning to `CNC(=O)c1cccc(OC(C)C(=O)N2CCN(C(=O)c3ccccc3)C[C@H]2C)c1` (mixture of isomers), the concentration for half-maximal inhibition (IC50) in data set [1] amounted to 1400 nM. Besides, in [2], the microsomal CLint was less than 8 µL/min/mg. The same compound came in with a CC50 in data set [3] of more than 10000 nM. In [4], the log distribution coefficient (logD) was determined as 1.3.

With `CC(Oc1ccccc1C(=O)N(C)C)C(=O)N1CCN(C(=O)c2ccccc2)C[C@H]1C` (mixture of isomers), the IC50 in data set [1] was more than 25000 nM. The microsomal CLint in data set [2] was 31 µL/min/mg. The compound also had a CC50 in data set [3] of more than 10000 nM. In data set [4], this compound registered a logD of 1.1.

Take `CNC(=O)c1ccc(OC(C)C(=O)N2CCN(C(=O)c3ccccc3)C[C@H]2C)cc1C` (mixture of isomers): the IC50 in data set [1] turned out to be 1000 nM. This compound also returned an intrinsic clearance (microsomal CLint) in data set [2] of less than 8 µL/min/mg. This compound also came in with a CC50 in [3] of more than 10000 nM. Further, the logD in data set [4] is 1.1.

In the case of `CC(Oc1cccc(C(=O)N(C)C)c1)C(=O)N1CCN(C(=O)c2ccccc2)C[C@H]1C` (mixture of isomers), the IC50 in data set [1] is more than 25000 nM. In data set [2], this compound showed a microsomal CLint of 12 µL/min/mg. In addition, the CC50 in data set [3] is more than 10000 nM. In data set [4], this compound had a logD of 1.

The compound `CNC(=O)c1ccc(O[C@@H](C)C(=O)N2CCN(C(=O)c3ccccc3)C[C@H]2C)c(OC)n1` (mixture of isomers) showed an IC50 in data set [1] of 257 nM. This compound displayed a CC50 in data set [3] of more than 10000 nM.

For the compound `Cc1c(OC(C)C(=O)N2CCN(C(=O)c3ccccc3)C[C@H]2C)cccc1-c1ncno1` (mixture of isomers), in data set [1], the half-maximal inhibitory concentration (IC50) amounted to 75 nM. In [2], this compound came in with a microsomal CLint of 141 µL/min/mg. This compound returned a CC50 in [3] of more than 10000 nM. The logD in data set [4] is 2.1.

In turn, `CC(Oc1cccc(Cl)c1)C(=O)N1CCN(C(=O)c2ccccc2)C[C@H]1C` (stereo not given in full) registered an IC50 in data set [1] of 1000 nM. The compound also registered a CC50 in data set [3] of more than 10000 nM.

`CNC(=O)c1ccccc1OC(C)C(=O)N1CCN(C(=O)c2ccccc2)C[C@H]1C` (mixture of isomers) had an IC50 in data set [1] of more than 25000 nM. This compound registered a microsomal CLint in [2] of 23 µL/min/mg. This compound registered a CC50 in [3] of more than 10000 nM. Moreover, the logD in data set [4] was found to be 1.5.

For the compound `CNC(=O)c1cc(OC)c(O[C@@H](C)C(=O)N2CCN(C(=O)c3ccccc3)C[C@H]2C)cn1` (mixture of isomers), the IC50 came out at 25 nM in data set [12]; 0.6 nM in data set [13]; 11 nM in data set [1]; 2 nM in [8]; 6 nM in [14]; 10 nM in data set [15]. Besides, the half-life in data set [5] was 1 h; in [10], more than 2 h. In data set [6], this compound displayed a bioavailability of 65%. In data set [7], the fraction unbound was 0.69. Further, the microsomal CLint in [2] is less than 8 µL/min/mg. For the same compound, the half-maximal cytotoxic concentration (CC50) in data set [3] is more than 10000 nM. The compound further displayed a logD in data set [4] of 0.7. Further, in data set [11], the Vd came out at 1.5 L/kg.

`CNC(=O)c1ccc(O[C@H](C)C(=O)N2CCN(C(=O)c3ccccc3)C[C@H]2C)c(OC)c1` yielded an IC50 in data set [1] of more than 2000 nM. The compound further returned a CC50 in data set [3] of more than 10000 nM.
